Test results: US11352322B2, “Cyclopropyl-amide compounds as dual LSD1/HDAC inhibitors” (Jubilant Epicore LLC, priority 2016, dated 2022)
Structures can show the parent of a compound that is named as a salt. Where two headings read alike, the source gives them in different places.

Legend:
MM1S = assay: Anticancer activity: Alamar Blue assay, MM1S; format: cell-based; details: Homo sapiens, MM1.S, read-out: MM1S EC50
LSD1 = LSD1 (Homo sapiens (Human), UniProt O60341); assay: TR-FRET Assay for LSD1; details: read-out: LSD1 IC50
Description: TR-FRET Assay for LSD1 (Perkin Elmer)
Tranylcypromine (TCP), LSD1 inhibitor was procured from Selleckchem. […] Stop Solution containing 300 μM tranylcypromine in 1× LANCE Detection Buffer was added to the wells and incubated for 5 min at RT. Then, Detection mix containing 2 nM Eu-Ab and 50 nM ULight-Streptavidin in 1× LANCE Detection Buffer was prepared and added to the reaction mix. This mixture was incubated for 1 hour at room temperature.

[1] = Metabolic stability in liver microsomes, HLM; details: 1 μM, NADPH
Description: (§1) The microsomal suspension was prepared by adding liver microsomes to 100 mM potassium phosphate buffer (pH7.4) to give a final protein concentration of 0.5 mg/mL. The stock solution of NCE (10 mM in DMSO) was added to the microsomes to provide a final concentration of 1 μM. […] Samples were vortexed and centrifuged at 5,000 rpm for 10 min to remove proteins. Supernatant were analyzed on LC-MS/MS.

[2] = Metabolic stability in liver microsomes, MLM; details: 1 μM, NADPH
Description: as §1

[3] = target: HDAC6 human recombinant enzyme (Homo sapiens (Human), UniProt Q9UBN7); assay: Histone Deacetylase Assay (BPS Biosciences), HDAC6; format: biochemical
HDAC6 human recombinant enzyme, sequence (Q9UBN7 whole entry): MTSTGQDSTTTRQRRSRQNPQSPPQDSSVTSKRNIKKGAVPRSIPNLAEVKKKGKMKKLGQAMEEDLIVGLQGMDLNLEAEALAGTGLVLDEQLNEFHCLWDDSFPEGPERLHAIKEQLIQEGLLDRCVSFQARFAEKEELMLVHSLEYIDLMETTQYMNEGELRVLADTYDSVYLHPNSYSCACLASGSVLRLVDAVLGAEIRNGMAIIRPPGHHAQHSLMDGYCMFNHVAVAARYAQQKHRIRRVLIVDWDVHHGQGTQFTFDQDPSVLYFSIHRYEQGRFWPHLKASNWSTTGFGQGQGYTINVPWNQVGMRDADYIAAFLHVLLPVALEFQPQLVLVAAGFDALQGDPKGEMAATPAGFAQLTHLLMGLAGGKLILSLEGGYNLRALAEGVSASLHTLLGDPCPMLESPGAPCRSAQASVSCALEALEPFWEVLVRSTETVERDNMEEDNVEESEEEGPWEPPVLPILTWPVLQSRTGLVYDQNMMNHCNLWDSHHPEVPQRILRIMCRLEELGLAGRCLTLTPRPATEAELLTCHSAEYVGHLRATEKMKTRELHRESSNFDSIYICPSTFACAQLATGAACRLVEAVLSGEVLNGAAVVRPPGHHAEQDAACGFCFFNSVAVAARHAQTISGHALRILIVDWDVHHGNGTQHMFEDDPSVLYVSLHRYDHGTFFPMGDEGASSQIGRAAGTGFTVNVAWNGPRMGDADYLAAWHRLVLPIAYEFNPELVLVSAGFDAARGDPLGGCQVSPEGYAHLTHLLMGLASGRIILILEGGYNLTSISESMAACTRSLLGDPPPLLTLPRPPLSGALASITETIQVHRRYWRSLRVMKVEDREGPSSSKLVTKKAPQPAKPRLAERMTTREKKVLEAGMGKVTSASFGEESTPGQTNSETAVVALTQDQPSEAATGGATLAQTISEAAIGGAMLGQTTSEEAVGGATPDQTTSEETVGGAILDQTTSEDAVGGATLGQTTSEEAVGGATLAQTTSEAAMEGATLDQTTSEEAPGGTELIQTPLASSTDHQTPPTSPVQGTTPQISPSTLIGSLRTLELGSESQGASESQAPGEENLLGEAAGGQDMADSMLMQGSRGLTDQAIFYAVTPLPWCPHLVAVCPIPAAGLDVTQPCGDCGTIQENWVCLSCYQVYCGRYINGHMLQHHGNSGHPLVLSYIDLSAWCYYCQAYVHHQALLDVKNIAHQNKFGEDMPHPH
Description: Histone Deacetylase Assay (BPS Biosciences)
Histone deacetylase assay was done as per manufacturer's instructions.

EC50 (MM1S; MM1S cells) | Structure (SMILES) | EC50 (MM1S) | IC50 (LSD1) | Metabolic stability HLM % remaining in 30 min [1] | Metabolic stability MLM % remaining in 30 min [2] | IC50 [3]
– | O=C(/C=C/c1ccc(CNC2CC2c2ccc(-c3cncnc3)cc2)cc1)NO (stereo not drawn) [Example 7, (E)-N-hydroxy-3-(4-(((2-(4-(pyrimidin-5-yl)phenyl)cyclopropyl)amino)methyl)phenyl)acrylamide TFA Salt] | 48 nM | 27 nM | 70% | < 5% | –
– | O=C(NO)c1ccc(N2CCC(CNC3CC3c3ccc(F)cc3)CC2)cc1 (stereo not drawn) [Example 22, 4-(4-(((2-(4-fluorophenyl)cyclopropyl)amino)methyl)piperidin-1-yl)-N-hydroxybenzamide TFA Salt] | 44 nM | 6400 nM | 60% | 38% | –
– | O=C(NO)c1ccc(CNC2CC2c2ccccc2)cc1 (stereo not drawn) [Example 28, N-hydroxy-4-(((2-phenylcyclopropyl)amino)methyl)benzamide TFA Salt] | – | 23 nM | 73% | 35% | –
– | Cc1noc(C)c1-c1ccc(C2CC2NCC2CCN(Cc3ccc(C(=O)NO)cc3)CC2)cc1 (stereo not drawn) [Example 37, 4-((4-(((2-(4-(3,5-dimethylisoxazol-4-yl)phenyl)cyclopropyl)amino)methyl)piperidin-1-yl)methyl)-N-hydroxybenzamide TFA salt] | 1730 nM | 43 nM | 86% | 55% | –
– | O=C(NO)c1ccc(CN2CCC(CNC3CC3c3ccc(-c4cncnc4)cc3)CC2)cc1 (stereo not drawn) [Example 38, N-hydroxy-4-((4-(((2-(4-(pyrimidin-5-yl)phenyl)cyclopropyl)amino)methyl)piperidin-1-yl)methyl)benzamide TFA Salt] | 3640 nM | 53 nM | 87% | > 95% | –
– | Cc1noc(C)c1-c1ccc(C2CC2NCC2CCN(Cc3ccc(C(=O)NO)cn3)CC2)cc1 (stereo not drawn) [Example 39, 6-((4-(((2-(4-(3,5-dimethylisoxazol-4-yl)phenyl)cyclopropyl)amino)methyl)piperidin-1-yl)methyl)-N-hydroxynicotinamide TFA Salt] | 2970 nM | 34 nM | 87% | > 95% | –
48 nM | CN(CC1CCN(CCCc2ccc(C(=O)NO)cc2)CC1)C1CC1c1ccccc1 (stereo not drawn) [Example 45, N-hydroxy-4-(3-(4-((methyl (2-phenylcyclopropyl)amino)methyl)piperidin-1-yl)propyl) benzamide TFA Salt] | – | 465 nM | – | – | –
– | O=C(NO)c1ccc(CCCN2CCC(CNC3CC3c3ccc(F)c(F)c3)CC2)cc1 (stereo not drawn) [Example 50, 4-(3-(4-(((2-(3,4-difluorophenyl)cyclopropyl)amino)methyl)piperidin-1-yl)propyl)-N-hydroxybenzamide TFA Salt] | 35 nM | 29 nM | 86% | 80% | –
– | O=C(NO)c1ccc(CCCN2CCC(CNC3CC3c3ccc(C(=O)N4CCOCC4)cc3)CC2)cc1 (stereo not drawn) [Example 53, N-hydroxy-4-(3-(4-(((2-(4-(morpholine-4-carbonyl)phenyl)cyclopropyl)amino)methyl)piperidin-1-yl)propyl)benzamide TFA Salt] | – | 22 nM | 89% | 82% | –
– | O=C(NO)c1ccc(CCCN2CCC(CNC3CC3c3ccc(C(=O)N4CCCCC4)cc3)CC2)cc1 (stereo not drawn) [Example 54, N-hydroxy-4-(3-(4-(((2-(4-(piperidine-1-carbonyl)phenyl)cyclopropyl)amino)methyl)piperidin-1-yl)propyl)benzamide TFA Salt] | – | 23 nM | 65% | 72% | –
– | N#Cc1ccc(-c2ccc(C3CC3NCC3CCN(CCCc4ccc(C(=O)NO)cc4)CC3)cc2)cc1 (stereo not drawn) [Example 59, 4-(3-(4-(((2-(4′-cyano-[1,1′-biphenyl]-4-yl)cyclopropyl)amino)methyl)piperidin-1-yl)propyl)-N-hydroxybenzamide TFA Salt] | – | 32 nM | 76% | 75% | –
– | Cn1cc(-c2ccc(C3CC3NCC3CN(CCCc4ccc(C(=O)NO)cc4)C3)cc2)cn1 (stereo not drawn) [Example 63, N-hydroxy-4-(3-(3-(((2-(4-(1-methyl-1H-pyrazol-4-yl)phenyl)cyclopropyl)amino)methyl)azetidin-1-yl)propyl)benzamide TFA Salt] | 191 nM | 31 nM | 86% | 69% | –
– | O=C(NO)c1ccc(CCC(=O)N2CCC(NC3CC3c3ccccc3)CC2)cc1 (stereo not drawn) [Example 83, N-hydroxy-4-(3-oxo-3-(4-((2-phenylcyclopropyl)amino)piperidin-1-yl)propyl)benzamide TFA Salt] | 153 nM | 90 nM | 69% | 82% | –
– | O=C(NO)c1ccc(CS(=O)(=O)NCCN2CCC(CNC3CC3c3ccccc3)CC2)cc1 (stereo not drawn) [Example 86, N-hydroxy-4-((N-(2-(4-(((2-phenylcyclopropyl)amino)methyl)piperidin-1-yl)ethyl)sulfamoyl)methyl)benzamide TFA Salt] | 676 nM | 18 nM | 71% | 58% | –
– | O=C(NO)c1cc2c(s1)CCN(C(=O)CCCNC1CC1c1ccc(F)cc1)C2 (stereo not drawn) [Example 105, 5-(4-((2-(4-fluorophenyl)cyclopropyl)amino)butanoyl)-N-hydroxy-4,5,6,7-tetrahydrothieno[3,2-c]pyridine-2-carboxamide TFA Salt] | 13 nM | – | 77% | 72% | 18 nM
– | O=C(NO)c1ccc2c(c1)CN(C(=O)CCCNC1CC1c1ccc(F)cc1)CC2 (stereo not drawn) [Example 107, 2-(4-((2-(4-fluorophenyl)cyclopropyl)amino)butanoyl)-N-hydroxy-1,2,3,4-tetrahydroisoquinoline-7-carboxamide TFA Salt] | 78 nM | – | 83% | 67% | 85 nM
– | O=C(NO)c1ccc(/C=C/C(=O)N2CCC(CNC3CC3c3ccccc3)CC2)cc1 (stereo not drawn) [Example 114, (E)-N-hydroxy-4-(3-oxo-3-(4-(((2-phenylcyclopropyl)amino)methyl)piperidin-1-yl)prop-1-en-1-yl)benzamide TFA Salt] | 44 nM | – | 83% | 56% | 68 nM
– | O=C(NO)c1ccc(/C=C/C(=O)N2CCC(CN[C@@H]3C[C@H]3c3ccccc3)CC2)cc1 [Example 114A, N-hydroxy-4-((E)-3-oxo-3-(4-((((1R,2S)-2-phenylcyclopropyl)amino)methyl)piperidin-1-yl)prop-1-en-1-yl)benzamide TFA Salt] | 14 nM | – | 67% | 62% | 38 nM
– | O=C(NO)c1ccc(/C=C/C(=O)N2CCC(CN[C@H]3C[C@@H]3c3ccccc3)CC2)cc1 [Example 114B, N-hydroxy-4-((E)-3-oxo-3-(4-((((1S,2R)-2-phenylcyclopropyl)amino)methyl)piperidin-1-yl)prop-1-en-1-yl)benzamide TFA Salt] | 97 nM | – | 73% | 43% | 33 nM
– | Nc1ccccc1NC(=O)c1ccc(CCCn2cnc(CNC3CC3c3ccc(F)c(F)c3)c2)cc1 (stereo not drawn) [Example 135, N-(2-aminophenyl)-4-(3-(4-(((2-(3,4-difluorophenyl)cyclopropyl)amino)methyl)-1H-imidazol-1-yl)propyl)benzamide TFA Salt] | 247 nM | – | 2% | 8% | > 10000 nM
– | Nc1ccccc1NC(=O)c1cc2c(s1)CCN(C(=O)CNC1CC1c1ccc(F)cc1)C2 (stereo not drawn) [Example 151, N-(2-aminophenyl)-5-((2-(4-fluorophenyl)cyclopropyl)glycyl)-4,5,6,7-tetrahydrothieno[3,2-c]pyridine-2-carboxamide TFA Salt] | 345 nM | – | 30% | 18% | > 10000 nM
– | Nc1ccccc1NC(=O)c1ccc2c(c1)CN(C(=O)CNC1CC1c1ccc(F)cc1)CC2 (stereo not drawn) [Example 152, N-(2-aminophenyl)-2-(2-((2-(4-fluorophenyl)cyclopropyl)amino)acetyl)-1,2,3,4-tetrahydroisoquinoline-7-carboxamide TFA Salt] | 566 nM | – | 36% | 31% | > 10000 nM
– | Nc1ccccc1NC(=O)c1ccc(CNC(=O)CNC2CC2c2ccc(F)cc2)cc1 (stereo not drawn) [Example 155, N-(2-aminophenyl)-4-((2-((2-(4-fluorophenyl)cyclopropyl)amino)acetamido)methyl)benzamide TFA Salt] | 42 nM | – | 46% | 34% | > 10000 nM
– | Nc1ccccc1NC(=O)c1ccc(CNC(=O)N2CCC(CNC3CC3c3ccc(F)cc3)CC2)cc1 (stereo not drawn) [Example 158, N-(4-((2-aminophenyl)carbamoyl)benzyl)-4-(((2-(4-fluorophenyl)cyclopropyl)amino)methyl)piperidine-1-carboxamide TFA Salt] | 58 nM | – | 50% | < 5% | > 10000 nM
